In ChEMBL document CHEMBL4507304, “Data for DCP probe TP-021” (2021):

Columns and labels:
[1] = molecular target: Mitogen-activated protein kinase 1 (Homo sapiens) (UniProt P28482); settings: Compound concentration 1000.0 nM
[2] = molecular target: Myosin light chain kinase 2, skeletal/cardiac muscle (Homo sapiens) (UniProt Q9H1R3); settings: Compound concentration 1000.0 nM
[3] = molecular target: Tyrosine-protein kinase Lyn (Homo sapiens) (UniProt P07948); settings: Compound concentration 1000.0 nM
[4] = test system: ALK tyrosine kinase receptor (Homo sapiens), Q9UM73 [L1196M]; settings: Compound concentration 1000.0 nM
[5] = molecular target: Tyrosine-protein kinase Srms (Homo sapiens) (UniProt Q9H3Y6); settings: Compound concentration 1000.0 nM
[6] = molecular target: Casein kinase I isoform epsilon (Homo sapiens) (UniProt P49674); settings: Compound concentration 1000.0 nM
[7] = molecular target: BMP-2-inducible protein kinase (Homo sapiens) (UniProt Q9NSY1); settings: Compound concentration 1000.0 nM
[8] = molecular target: Sigma intracellular receptor 2 (Homo sapiens) (UniProt Q5BJF2); settings: Compound concentration 10.0 uM
[9] = molecular target: Tyrosine-protein kinase ABL1 (Homo sapiens) (UniProt P00519); settings: Compound concentration 1000.0 nM
[10] = molecular target: Wee1-like protein kinase (Homo sapiens) (UniProt P30291); settings: Compound concentration 1000.0 nM
[11] = molecular target: Casein kinase I isoform alpha-like (Homo sapiens) (UniProt Q8N752); settings: Compound concentration 1000.0 nM
[12] = molecular target: D(1A) dopamine receptor (Homo sapiens) (UniProt P21728); settings: Compound concentration 10.0 uM
[13] = molecular target: Cyclin-dependent kinase-like 1 (Homo sapiens) (UniProt Q00532); settings: Compound concentration 1000.0 nM
[14] = molecular target: Ephrin type-B receptor 3 (Homo sapiens) (UniProt P54753); settings: Compound concentration 1000.0 nM
[15] = molecular target: cAMP-dependent protein kinase catalytic subunit alpha (Homo sapiens) (UniProt P17612); settings: Compound concentration 1000.0 nM
[16] = molecular target: Fibroblast growth factor receptor 4 (Homo sapiens) (UniProt P22455); settings: Compound concentration 1000.0 nM
[17] = molecular target: Mitotic checkpoint serine/threonine-protein kinase BUB1 (Homo sapiens) (UniProt O43683); settings: Compound concentration 1000.0 nM
[18] = molecular target: Phosphatidylinositol 4-phosphate 5-kinase type-1 gamma (Homo sapiens) (UniProt O60331); settings: Compound concentration 1000.0 nM
[19] = test system: Phosphatidylinositol 4,5-bisphosphate 3-kinase catalytic subunit alpha isoform (Homo sapiens), P42336 [H1047Y]; settings: Compound concentration 1000.0 nM
[20] = molecular target: D(4) dopamine receptor (Homo sapiens) (UniProt P21917); settings: Compound concentration 10.0 uM
[21] = molecular target: MAP kinase-interacting serine/threonine-protein kinase 1 (Homo sapiens) (UniProt Q9BUB5); settings: Compound concentration 1000.0 nM
[22] = molecular target: Protein kinase C iota type (Homo sapiens) (UniProt P41743); settings: Compound concentration 1000.0 nM
[23] = molecular target: Serine/threonine-protein kinase RIO2 (Homo sapiens) (UniProt Q9BVS4); settings: Compound concentration 1000.0 nM
[24] = molecular target: Mitogen-activated protein kinase kinase kinase kinase 3 (Homo sapiens) (UniProt Q8IVH8); settings: Compound concentration 1000.0 nM
[25] = molecular target: Serine/threonine-protein kinase pim-3 (Homo sapiens) (UniProt Q86V86); settings: Compound concentration 1000.0 nM
[26] = molecular target: Ephrin type-B receptor 1 (Homo sapiens) (UniProt P54762); settings: Compound concentration 1000.0 nM
[27] = molecular target: Aurora kinase B (Homo sapiens) (UniProt Q96GD4); settings: Compound concentration 1000.0 nM
[28] = molecular target: Dual specificity tyrosine-phosphorylation-regulated kinase 2 (Homo sapiens) (UniProt Q92630); settings: Compound concentration 1000.0 nM
[29] = molecular target: Casein kinase I isoform delta (Homo sapiens) (UniProt P48730); settings: Compound concentration 1000.0 nM
[30] = molecular target: 5-hydroxytryptamine receptor 3A (Homo sapiens) (UniProt P46098); settings: Compound concentration 10.0 uM
[31] = molecular target: Peripheral plasma membrane protein CASK (Homo sapiens) (UniProt O14936); settings: Compound concentration 1000.0 nM
[32] = molecular target: Serine/threonine-protein kinase RIO1 (Homo sapiens) (UniProt Q9BRS2); settings: Compound concentration 1000.0 nM
[33] = molecular target: Myosin light chain kinase, smooth muscle (Homo sapiens) (UniProt Q15746); settings: Compound concentration 1000.0 nM
[34] = molecular target: Atypical kinase COQ8B, mitochondrial (Homo sapiens) (UniProt Q96D53); settings: Compound concentration 1000.0 nM
[35] = molecular target: Tyrosine-protein kinase CSK (Homo sapiens) (UniProt P41240); settings: Compound concentration 1000.0 nM
[36] = molecular target: Serine/threonine-protein kinase 17B (Homo sapiens) (UniProt O94768); settings: Compound concentration 1000.0 nM
[37] = test system: Receptor-type tyrosine-protein kinase FLT3 (Homo sapiens), P36888 [R834Q]; settings: Compound concentration 1000.0 nM
[38] = molecular target: Serine/threonine-protein kinase 38 (Homo sapiens) (UniProt Q15208); settings: Compound concentration 1000.0 nM
[39] = molecular target: Receptor tyrosine-protein kinase erbB-4 (Homo sapiens) (UniProt Q15303); settings: Compound concentration 1000.0 nM
[40] = molecular target: Calcium/calmodulin-dependent protein kinase type IV (Homo sapiens) (UniProt Q16566); settings: Compound concentration 1000.0 nM
[41] = molecular target: Serine/threonine-protein kinase N1 (Homo sapiens) (UniProt Q16512); settings: Compound concentration 1000.0 nM
[42] = molecular target: TGF-beta receptor type-2 (Homo sapiens) (UniProt P37173); settings: Compound concentration 1000.0 nM
[43] = test system: Proto-oncogene tyrosine-protein kinase receptor Ret (Homo sapiens), P07949 [V804M]; settings: Compound concentration 1000.0 nM
[44] = molecular target: NUAK family SNF1-like kinase 2 (Homo sapiens) (UniProt Q9H093); settings: Compound concentration 1000.0 nM
[45] = molecular target: Casein kinase I isoform gamma-3 (Homo sapiens) (UniProt Q9Y6M4); settings: Compound concentration 1000.0 nM

Chain of Mitogen-activated protein kinase 1 (Homo sapiens) (P28482 whole entry): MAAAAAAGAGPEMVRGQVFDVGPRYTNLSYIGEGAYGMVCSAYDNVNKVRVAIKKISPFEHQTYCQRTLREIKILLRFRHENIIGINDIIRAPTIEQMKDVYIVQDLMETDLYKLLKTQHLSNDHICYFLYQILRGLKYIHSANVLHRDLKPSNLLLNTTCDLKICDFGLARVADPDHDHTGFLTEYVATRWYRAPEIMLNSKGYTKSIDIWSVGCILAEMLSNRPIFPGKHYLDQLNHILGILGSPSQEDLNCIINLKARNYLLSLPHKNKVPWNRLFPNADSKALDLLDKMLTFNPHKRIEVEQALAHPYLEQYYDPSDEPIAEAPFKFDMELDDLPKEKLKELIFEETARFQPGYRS
Chain of Myosin light chain kinase, smooth muscle (Homo sapiens) (Q15746 whole entry): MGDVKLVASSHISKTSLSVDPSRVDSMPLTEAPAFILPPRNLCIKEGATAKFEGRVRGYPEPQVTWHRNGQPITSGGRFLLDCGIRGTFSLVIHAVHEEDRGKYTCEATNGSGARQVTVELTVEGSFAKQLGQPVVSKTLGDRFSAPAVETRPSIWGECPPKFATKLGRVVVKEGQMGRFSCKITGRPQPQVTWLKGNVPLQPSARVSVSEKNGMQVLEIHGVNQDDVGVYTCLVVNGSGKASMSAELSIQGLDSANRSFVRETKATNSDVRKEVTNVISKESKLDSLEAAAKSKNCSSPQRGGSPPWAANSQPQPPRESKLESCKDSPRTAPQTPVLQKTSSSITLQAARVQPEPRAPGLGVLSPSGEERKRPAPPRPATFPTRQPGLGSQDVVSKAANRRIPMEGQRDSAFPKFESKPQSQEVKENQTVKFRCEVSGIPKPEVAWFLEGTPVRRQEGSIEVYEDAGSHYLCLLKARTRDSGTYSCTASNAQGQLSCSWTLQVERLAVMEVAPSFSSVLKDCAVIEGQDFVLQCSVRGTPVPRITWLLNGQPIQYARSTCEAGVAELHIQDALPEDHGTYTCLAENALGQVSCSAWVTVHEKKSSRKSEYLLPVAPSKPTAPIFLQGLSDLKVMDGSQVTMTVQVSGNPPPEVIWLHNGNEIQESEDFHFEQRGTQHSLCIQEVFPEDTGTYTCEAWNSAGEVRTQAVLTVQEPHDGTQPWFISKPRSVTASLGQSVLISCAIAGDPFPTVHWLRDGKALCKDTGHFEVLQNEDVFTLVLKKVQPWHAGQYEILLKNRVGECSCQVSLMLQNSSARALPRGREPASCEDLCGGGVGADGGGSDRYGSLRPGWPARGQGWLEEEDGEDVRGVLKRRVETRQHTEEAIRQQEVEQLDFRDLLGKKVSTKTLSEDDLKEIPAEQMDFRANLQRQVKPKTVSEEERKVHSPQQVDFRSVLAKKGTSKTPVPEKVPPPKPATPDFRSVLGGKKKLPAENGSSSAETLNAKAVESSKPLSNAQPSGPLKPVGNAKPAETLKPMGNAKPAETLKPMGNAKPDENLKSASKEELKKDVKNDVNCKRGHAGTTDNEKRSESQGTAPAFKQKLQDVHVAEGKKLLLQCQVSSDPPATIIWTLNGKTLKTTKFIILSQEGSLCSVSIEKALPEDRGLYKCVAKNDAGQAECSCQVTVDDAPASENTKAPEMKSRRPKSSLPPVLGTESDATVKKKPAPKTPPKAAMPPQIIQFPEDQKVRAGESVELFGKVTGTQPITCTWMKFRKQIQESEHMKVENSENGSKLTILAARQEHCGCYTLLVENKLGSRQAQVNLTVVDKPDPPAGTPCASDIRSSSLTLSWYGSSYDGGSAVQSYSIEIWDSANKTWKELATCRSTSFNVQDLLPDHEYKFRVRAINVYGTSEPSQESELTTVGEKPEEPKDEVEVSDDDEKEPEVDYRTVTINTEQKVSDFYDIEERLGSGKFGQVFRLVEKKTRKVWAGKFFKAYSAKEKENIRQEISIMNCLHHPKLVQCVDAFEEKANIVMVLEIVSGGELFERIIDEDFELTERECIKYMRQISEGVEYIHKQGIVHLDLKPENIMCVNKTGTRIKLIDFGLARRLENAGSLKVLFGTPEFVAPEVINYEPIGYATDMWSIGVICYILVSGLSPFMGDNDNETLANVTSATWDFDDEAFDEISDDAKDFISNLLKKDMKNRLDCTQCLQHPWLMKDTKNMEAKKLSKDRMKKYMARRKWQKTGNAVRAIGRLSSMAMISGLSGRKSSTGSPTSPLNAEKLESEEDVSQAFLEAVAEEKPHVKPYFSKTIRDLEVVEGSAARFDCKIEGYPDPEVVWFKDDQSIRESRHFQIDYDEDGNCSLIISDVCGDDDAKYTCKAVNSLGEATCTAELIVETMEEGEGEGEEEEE
Chain of Ephrin type-B receptor 1 (Homo sapiens) (P54762 whole entry): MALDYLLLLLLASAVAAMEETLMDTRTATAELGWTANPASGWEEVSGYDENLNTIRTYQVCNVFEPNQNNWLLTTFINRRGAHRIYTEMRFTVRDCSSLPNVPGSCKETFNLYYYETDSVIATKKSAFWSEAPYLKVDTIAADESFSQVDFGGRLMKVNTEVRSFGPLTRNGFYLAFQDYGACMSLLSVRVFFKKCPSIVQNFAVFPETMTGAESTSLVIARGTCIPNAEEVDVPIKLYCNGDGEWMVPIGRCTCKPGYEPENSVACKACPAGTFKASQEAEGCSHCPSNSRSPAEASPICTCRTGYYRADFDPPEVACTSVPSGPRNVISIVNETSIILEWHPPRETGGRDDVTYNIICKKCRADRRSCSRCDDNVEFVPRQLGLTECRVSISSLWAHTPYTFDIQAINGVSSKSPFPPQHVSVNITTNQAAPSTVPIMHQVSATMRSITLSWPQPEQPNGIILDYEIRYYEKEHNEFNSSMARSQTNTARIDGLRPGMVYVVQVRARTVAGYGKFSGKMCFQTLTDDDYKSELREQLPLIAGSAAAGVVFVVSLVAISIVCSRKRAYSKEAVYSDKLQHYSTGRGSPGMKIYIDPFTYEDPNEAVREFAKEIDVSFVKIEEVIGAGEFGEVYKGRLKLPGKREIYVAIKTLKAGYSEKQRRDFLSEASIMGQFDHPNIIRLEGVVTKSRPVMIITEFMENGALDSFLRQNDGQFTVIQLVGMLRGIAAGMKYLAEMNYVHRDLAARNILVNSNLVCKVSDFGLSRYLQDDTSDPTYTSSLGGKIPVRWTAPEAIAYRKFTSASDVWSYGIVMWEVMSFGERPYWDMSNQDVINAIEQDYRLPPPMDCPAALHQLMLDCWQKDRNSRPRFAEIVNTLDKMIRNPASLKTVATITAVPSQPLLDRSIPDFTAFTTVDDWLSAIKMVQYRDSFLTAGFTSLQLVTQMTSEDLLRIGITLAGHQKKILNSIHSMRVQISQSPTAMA
Chain of D(1A) dopamine receptor (Homo sapiens) (P21728 whole entry): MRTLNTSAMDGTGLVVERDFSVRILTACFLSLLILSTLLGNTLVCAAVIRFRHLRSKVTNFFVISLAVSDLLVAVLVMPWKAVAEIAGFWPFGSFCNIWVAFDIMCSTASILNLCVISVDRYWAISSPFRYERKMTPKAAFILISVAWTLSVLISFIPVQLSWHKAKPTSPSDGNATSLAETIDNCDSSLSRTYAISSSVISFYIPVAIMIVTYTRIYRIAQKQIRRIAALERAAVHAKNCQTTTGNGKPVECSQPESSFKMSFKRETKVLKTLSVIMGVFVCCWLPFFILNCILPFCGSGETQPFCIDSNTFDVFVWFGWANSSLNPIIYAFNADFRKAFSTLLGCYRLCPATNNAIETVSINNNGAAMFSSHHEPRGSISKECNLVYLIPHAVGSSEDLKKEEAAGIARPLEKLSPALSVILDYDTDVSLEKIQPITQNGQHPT
Chain of Dual specificity tyrosine-phosphorylation-regulated kinase 2 (Homo sapiens) (Q92630 whole entry, canonical isoform): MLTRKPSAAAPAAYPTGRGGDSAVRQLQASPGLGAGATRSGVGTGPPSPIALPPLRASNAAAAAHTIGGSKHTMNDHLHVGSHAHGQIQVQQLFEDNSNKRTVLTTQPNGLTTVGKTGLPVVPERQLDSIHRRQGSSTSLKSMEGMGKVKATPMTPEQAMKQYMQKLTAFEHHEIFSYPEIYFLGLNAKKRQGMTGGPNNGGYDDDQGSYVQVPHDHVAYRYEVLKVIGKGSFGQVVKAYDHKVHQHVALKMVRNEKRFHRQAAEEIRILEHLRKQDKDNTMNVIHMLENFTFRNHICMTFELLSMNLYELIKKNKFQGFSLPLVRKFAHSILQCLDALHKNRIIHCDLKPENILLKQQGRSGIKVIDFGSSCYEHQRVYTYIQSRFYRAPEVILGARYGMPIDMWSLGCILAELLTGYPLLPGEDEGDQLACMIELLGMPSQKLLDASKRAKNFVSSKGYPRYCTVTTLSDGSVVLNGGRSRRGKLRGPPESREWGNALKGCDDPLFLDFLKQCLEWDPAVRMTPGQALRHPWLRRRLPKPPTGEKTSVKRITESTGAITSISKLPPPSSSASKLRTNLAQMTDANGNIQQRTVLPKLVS
Chain of Fibroblast growth factor receptor 4 (Homo sapiens) (P22455 22-802 limits assumed): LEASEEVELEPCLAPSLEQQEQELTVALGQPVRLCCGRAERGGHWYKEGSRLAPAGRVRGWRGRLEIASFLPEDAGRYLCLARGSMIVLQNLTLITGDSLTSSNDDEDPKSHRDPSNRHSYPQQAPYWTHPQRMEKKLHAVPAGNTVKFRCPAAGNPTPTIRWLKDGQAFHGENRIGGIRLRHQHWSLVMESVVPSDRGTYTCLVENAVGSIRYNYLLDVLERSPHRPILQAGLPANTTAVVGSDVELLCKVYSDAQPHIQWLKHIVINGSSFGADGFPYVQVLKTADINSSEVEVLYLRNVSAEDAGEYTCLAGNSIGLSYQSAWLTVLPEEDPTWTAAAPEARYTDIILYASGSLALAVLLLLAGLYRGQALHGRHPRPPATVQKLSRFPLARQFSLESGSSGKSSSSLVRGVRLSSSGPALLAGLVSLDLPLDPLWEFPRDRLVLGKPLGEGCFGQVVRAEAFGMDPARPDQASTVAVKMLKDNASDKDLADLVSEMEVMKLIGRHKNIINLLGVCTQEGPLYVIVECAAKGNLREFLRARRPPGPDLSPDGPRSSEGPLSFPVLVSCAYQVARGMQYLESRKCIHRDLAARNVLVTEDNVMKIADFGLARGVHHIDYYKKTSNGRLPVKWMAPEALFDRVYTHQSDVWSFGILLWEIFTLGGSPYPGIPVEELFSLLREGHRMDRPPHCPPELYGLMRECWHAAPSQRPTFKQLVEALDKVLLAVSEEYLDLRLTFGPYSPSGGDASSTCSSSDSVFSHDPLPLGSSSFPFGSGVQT

N#Cc1ccc(Nc2ccc3[nH]c(=O)[nH]c3c2)c(Cl)c1
inactive: residual activity [1] 100% | residual activity [2] 99% | residual activity [3] 78% | residual activity [4] 100% | residual activity [5] 100% | residual activity [6] 94% | residual activity [7] 91% | inhibition [8] -4.12% | residual activity [9] 100% | residual activity [10] 87% | residual activity [11] 100% | inhibition [12] -7.86% | residual activity [13] 84% | residual activity [14] 100% | residual activity [15] 96% | residual activity [16] 100% | residual activity [17] 100% | residual activity [18] 67% | residual activity [19] 100% | inhibition [20] -2.02% | residual activity [21] 100% | residual activity [22] 86% | residual activity [23] 89% | residual activity [24] 88% | residual activity [25] 100% | residual activity [26] 93% | residual activity [27] 85% | residual activity [28] 85% | residual activity [29] 100% | inhibition [30] 1.33% | residual activity [31] 100% | residual activity [32] 100% | residual activity [33] 96% | residual activity [34] 100% | residual activity [35] 89% | residual activity [36] 100% | residual activity [37] 90% | residual activity [38] 95% | residual activity [39] 100% | residual activity [40] 100% | residual activity [41] 100% | residual activity [42] 100% | residual activity [43] 93% | residual activity [44] 100% | residual activity [45] 99%

O=C1CCc2cc(Nc3cc(OC4CCOCC4)c([N+](=O)[O-])cc3Cl)ccc2N1
inactive: residual activity [1] 99% | residual activity [2] 90% | residual activity [3] 93% | residual activity [4] 100% | residual activity [5] 82% | residual activity [6] 100% | residual activity [7] 100% | inhibition [8] 27.1% | residual activity [9] 98% | residual activity [10] 99% | residual activity [11] 84% | inhibition [12] 7.4% | residual activity [13] 78% | residual activity [14] 88% | residual activity [15] 96% | residual activity [16] 81% | residual activity [17] 89% | residual activity [18] 100% | residual activity [19] 100% | inhibition [20] -2.6% | residual activity [21] 100% | residual activity [22] 98% | residual activity [23] 89% | residual activity [24] 91% | residual activity [25] 100% | residual activity [26] 83% | residual activity [27] 86% | residual activity [28] 97% | residual activity [29] 90% | inhibition [30] 4.05% | residual activity [31] 100% | residual activity [32] 100% | residual activity [33] 94% | residual activity [34] 100% | residual activity [35] 98% | residual activity [36] 100% | residual activity [37] 87% | residual activity [38] 88% | residual activity [39] 100% | residual activity [40] 100% | residual activity [41] 100% | residual activity [42] 98% | residual activity [43] 100% | residual activity [44] 89% | residual activity [45] 67%
